Data set [1] can be described thus: Aqueous solubility of the compound. The format is physicochemical. The following applies: buffer.
The test system of data set [2] is MDA-MB-231. The data set is described as follows: Antiinvasive activity against human MDA-MB-231 cells cultured as 3D-spheroids at 10 uM measured after 6 days by imaging analysis relative to control. It counts as functional. The following applies: time 6 day.
The species named for data set [3] is Mus musculus. The following applies: dose 90.0 mg/kg, time 5.0 day.
The subject of data set [4] is MDA-MB-468. In words: Inhibition of Wnt/beta-catenin transactivation signalling in Wnt3a stimulated human MDA-MB-468 cells assessed as relative activity at 25 uM measured after 24 hrs by TOPFlash reporter gene assay relative to control. The format is cell-based. Also noted: scale not given: the % may be the effect or the level left.
The test system of data set [5] is MCF-10A. In words: Induction of apoptosis in human MCF-10A cells assessed as late apoptotic cells at 20 uM measured after 72 hrs by annexinV-FITC/propidium iodide staining based flow cytometry (reference value: 13.9 %). The format is cell-based.
In data set [6] the test system is MDA-MB-231. The data set is described as follows: Induction of apoptosis in human MDA-MB-231 cells assessed as late apoptotic cells at 40 uM measured after 72 hrs by annexinV-FITC/propidium iodide staining based flow cytometry (reference value: 8.8 %). It counts as functional. For orientation: Flow cytometry measures light scatter and fluorescence of single cells or particles in a stream.

In data set [7] the test system is MDA-MB-231. In words: cells. The following applies: Homo sapiens, MDA-MB-231, 72 h.
Description: Antiproliferative activity against human MDA-MB-231 cells assessed as cell growth inhibition measured after 72 hrs by MTS assay
Data set [8] has as its system MDA-MB-468. In words: Induction of apoptosis in human MDA-MB-468 cells assessed as late apoptotic cells at 10 uM measured after 72 hrs by annexinV-FITC/propidium iodide staining based flow cytometry (reference value: 13.9 %). The format is functional.
For data set [9], the system named is SW480. In words: Inhibition of Wnt/beta-catenin transactivation signalling in human SW480 cells assessed as relative activity at 6.25 uM measured after 24 hrs by TOPFlash reporter gene assay relative to control. The format is cell-based. Details: scale not given: the % may be the effect or the level left. (A reporter such as luciferase makes a cellular process visible.)

Data set [10] in a line: Intrinsic clearance in mouse liver microsomes at 1 uM measured up to 60 mins in presence of NADPH by LC-MS/SM analysis. It counts as ADME, Microsome. The following applies: 1 h. On the technique in general: Liver microsomes are a subcellular fraction often used to study metabolism.
A short description of data set [11]: AUC in C57BL/6 mouse at 20 mg/kg, po via gavage measured up to 24 hrs by LC-MS/MS analysis. The following applies: in vivo. The format is ADME, organism-based. Details: route oral, dose 20 mg/kg, time <=24.
For data set [12], the system named is MCF-10A. The data set is described as follows: Induction of apoptosis in human MCF-10A cells assessed as late apoptotic cells at 40 uM measured after 72 hrs by annexinV-FITC/propidium iodide staining based flow cytometry (reference value: 13.9 %). It counts as cell-based.
Data set [13] can be described thus: Oral bioavailability in C57BL/6 mouse at 20 mg/kg measured up to 24 hrs by LC-MS/MS analysis. Conditions: in vivo. It counts as ADME, organism-based.
Data set [14] deals with MDA-MB-468. In words: Induction of apoptosis in human MDA-MB-468 cells assessed as early apoptotic cells at 40 uM measured after 72 hrs by annexinV-FITC/propidium iodide staining based flow cytometry (reference value: 28.9 %). It counts as functional.
The nature of data set [15]: Half life in C57BL/6 mouse at 1 mg/kg, iv measured after 5 mins by LC-MS/MS analysis. The format is ADME, organism-based. The following applies: in vivo.
Data set [16] has as its system MDA-MB-231. In words: Antiinvasive activity against human MDA-MB-231 cells cultured as 3D-spheroids at 40 uM measured after 6 days by imaging analysis relative to control. The format is functional. The following applies: time 6 day.
For data set [17], the species on record is Mus musculus. Conditions: dose 90.0 mg/kg, time 5.0 day. This is another data set of the same source.
Data set [18] is filed under the species Mus musculus. Conditions: dose 90.0 mg/kg, time 5.0 day. This is another data set of the same source.
The subject of data set [19] is MDA-MB-468. The data set is described as follows: Induction of apoptosis in human MDA-MB-468 cells assessed as late apoptotic cells at 20 uM measured after 72 hrs by annexinV-FITC/propidium iodide staining based flow cytometry (reference value: 13.9 %). The format is functional.
The species entered for data set [20] is Mus musculus. The following applies: dose 90.0 mg/kg, time 5.0 day. The source holds these as a separate data set.
In data set [21] the test system is MCF-10A. In words: Induction of apoptosis in human MCF-10A cells assessed as early apoptotic cells at 40 uM measured after 72 hrs by annexinV-FITC/propidium iodide staining based flow cytometry (reference value: 28.9 %). It counts as cell-based.
The subject of data set [22] is SW480. The data set is described as follows: cells. The following applies: Homo sapiens, SW480, 72 h.
Description: Antiproliferative activity against human SW480 cells assessed as cell growth inhibition measured after 72 hrs by MTS assay

The source made the active and inactive calls. No cut-off for these calls is given here. Bounds are passed on as bounds.

What is called solubility is how much of the substance goes into solution per volume. For orientation: IC50 means the midpoint of a concentration-inhibition curve. As usually defined, the AUC is the area under the concentration-time curve, a measure of exposure. In [1], `CC(C)(Oc1cccc(N2CCC[C@@H](C(=O)N(Cc3ccc(-c4cn[nH]c4)cc3)C3CC3)C2)c1)C(=O)N1CCNCC1.Cl` registered a solubility of over 3000 µM. In addition, the Activity in the data set with MDA-MB-231 [2] was 47.5%; in the data set on MDA-MB-468 [4] it was 89%; in the data set on MCF-10A [5] it was 17.3%; with MDA-MB-231 [6] it was 18.9%; with MDA-MB-468 [8] it was 17.6%; in the data set with SW480 [9], 97%. The Activity in the data set on MCF-10A [12] turned out to be 15.3%; in the data set on MDA-MB-468 [14], 53.5%; with MDA-MB-231 [16], 10.9%; with MDA-MB-468 [19], 24.6%; in the data set on MCF-10A [21] it was 3.9%. Moreover, the inhibition result in the data set listed under Mus musculus [3], in the data set listed under Mus musculus [17], in the data set filed under Mus musculus [18] and in the data set listed under Mus musculus [20] was “Active” each time. Moreover, the IC50 in the data set with MDA-MB-231 [7] was found to be 28 µM; with SW480 [22] it was 24 µM. Besides, the CLint in [10] stood at 72 µL/min/mg. In addition, the AUC in data set [11] came to 11.71 µM·h. For the same molecule, the F in [13] is 83%. In addition, the t1/2 in data set [15] came to 3.51 h.

The values are drawn from ChEMBL document CHEMBL4840323, “Discovery of an Orally Bioavailable Small-Molecule Inhibitor for the β-Catenin/B-Cell Lymphoma 9 Protein-Protein Interaction” (J Med Chem, 2021).
